Laboratory results: publication PMC5218480 (PLoS ONE, 2017)

Tested on: MV-4-11 cells
Test: Gene expression microarray analysis (Affymetrix PrimeView) and GSEA
Type: cell-based, human
Set-up: RFU PODN (11730768_x_at) / Fold change /veh PODN (11730768_x_at) / RFU LINC00158 (11744669_a_at) / Fold change /veh LINC00158 (11744669_a_at) / RFU DUSP10 (11751237_a_at) / Fold change /veh DUSP10 (11751237_a_at) / RFU ID3 (11757404_x_at) / Fold change /veh ID3 (11757404_x_at) / RFU PLEKHG5 (11737974_s_at) / Fold change /veh PLEKHG5 (11737974_s_at) / RFU LRRC4B (11730491_at) / Fold change /veh LRRC4B (11730491_at) / RFU GIMAP4 (11747438_a_at) / Fold change /veh GIMAP4 (11747438_a_at) / RFU KRT8 (11758183_x_at) / Fold change /veh KRT8 (11758183_x_at) / RFU CNN1 (11734310_a_at) / Fold change /veh CNN1 (11734310_a_at) / RFU VPS37D (11726825_at) / Fold change /veh VPS37D (11726825_at) / RFU C10orf10 (11716522_x_at) / Fold change /veh C10orf10 (11716522_x_at) / RFU KIR2DL2 /// KIR2DL4 /// KIR2DL5A /// KIR2DL5B /// KIR2DS1 /// KIR2DS2 /// KIR2DS3 /// KIR2DS4 /// KIR3DL3 /// KIR3DL3 /// KIR3DS1 (11738374_at) / Fold change /veh KIR2DL2 /// KIR2DL4 /// KIR2DL5A /// KIR2DL5B /// KIR2DS1 /// KIR2DS2 /// KIR2DS3 /// KIR2DS4 /// KIR3DL3 /// KIR3DL3 /// KIR3DS1 (11738374_at) / RFU C1QL1 (11718748_at) / Fold change /veh C1QL1 (11718748_at) / RFU TMPRSS4 (11747572_a_at) / Fold change /veh TMPRSS4 (11747572_a_at) / RFU HAMP (11756126_x_at) / Fold change /veh HAMP (11756126_x_at) / RFU RNFT2 (11725882_a_at) / Fold change /veh RNFT2 (11725882_a_at) / RFU NR4A2 (11747474_a_at) / Fold change /veh NR4A2 (11747474_a_at) / RFU ABCC12 (11746883_a_at) / Fold change /veh ABCC12 (11746883_a_at) / RFU TMEM136 (11760407_x_at) / Fold change /veh TMEM136 (11760407_x_at) / RFU CLDN22 /// WWC2 (11732394_at) / Fold change /veh CLDN22 /// WWC2 (11732394_at) / RFU HLA-DPB1 (11760878_x_at) / Fold change /veh HLA-DPB1 (11760878_x_at) / RFU SPINT1 (11716480_a_at) / Fold change /veh SPINT1 (11716480_a_at) / RFU GAP43 (11754022_s_at) / Fold change /veh GAP43 (11754022_s_at) / RFU A4GNT (11735810_at) / Fold change /veh A4GNT (11735810_at) / RFU PRB3 (11715151_x_at) / Fold change /veh PRB3 (11715151_x_at) / RFU TUBB4B (11761932_at) / Fold change /veh TUBB4B (11761932_at) / RFU CAPN14 (11732068_a_at) / Fold change /veh CAPN14 (11732068_a_at) / RFU TMCC2 (11721928_a_at) / Fold change /veh TMCC2 (11721928_a_at) / RFU IRGQ (11745062_a_at) / Fold change /veh IRGQ (11745062_a_at) / RFU FAM174B (11720279_a_at) / Fold change /veh FAM174B (11720279_a_at) / RFU TMPRSS4 (11748680_a_at) / Fold change /veh TMPRSS4 (11748680_a_at) / RFU FAM212B (11763350_a_at) / Fold change /veh FAM212B (11763350_a_at) / RFU PLEKHG5 (11743358_a_at) / Fold change /veh PLEKHG5 (11743358_a_at) / RFU ZSCAN30 (11745921_a_at) / Fold change /veh ZSCAN30 (11745921_a_at) / RFU CMKLR1 (11741424_a_at) / Fold change /veh CMKLR1 (11741424_a_at) / RFU LOC101060620 /// MAPK8IP1 (11723275_at) / Fold change /veh LOC101060620 /// MAPK8IP1 (11723275_at) / RFU SPTSSB (11747773_x_at) / Fold change /veh SPTSSB (11747773_x_at) / RFU PRSS12 (11739890_at) / Fold change /veh PRSS12 (11739890_at) / RFU BIN1 (11741810_x_at) / Fold change /veh BIN1 (11741810_x_at) / RFU WNT11 (11732464_a_at) / Fold change /veh WNT11 (11732464_a_at) / RFU C10orf10 (11716521_a_at) / Fold change /veh C10orf10 (11716521_a_at) / RFU C5orf56 (11738089_at) / Fold change /veh C5orf56 (11738089_at) / RFU CYB561 (11721691_x_at) / Fold change /veh CYB561 (11721691_x_at) / RFU ANKRD19P (11752326_a_at) / Fold change /veh ANKRD19P (11752326_a_at) / RFU OR2T12 /// OR2T33 /// OR2T8 (11738714_s_at) / Fold change /veh OR2T12 /// OR2T33 /// OR2T8 (11738714_s_at) / RFU VCAN (11748164_a_at) / Fold change /veh VCAN (11748164_a_at) / RFU JSRP1 (11732532_at) / Fold change /veh JSRP1 (11732532_at) / RFU KRTAP10-11 (11738290_x_at) / Fold change /veh KRTAP10-11 (11738290_x_at) / RFU MYO3A (11730013_a_at) / Fold change /veh MYO3A (11730013_a_at) / RFU EBF3 (11725865_a_at) / Fold change /veh EBF3 (11725865_a_at) / RFU CAMK2N1 (11719241_x_at) / Fold change /veh CAMK2N1 (11719241_x_at) / RFU C5orf56 (11738088_a_at) / Fold change /veh C5orf56 (11738088_a_at) / RFU OLFML3 (11715873_a_at) / Fold change /veh OLFML3 (11715873_a_at) / RFU LOC100653217 /// NTM (11731650_a_at) / Fold change /veh LOC100653217 /// NTM (11731650_a_at) / RFU MAPK11 (11762145_a_at) / Fold change /veh MAPK11 (11762145_a_at) / RFU FIZ1 (11724087_x_at) / Fold change /veh FIZ1 (11724087_x_at) / RFU OASL (11726364_x_at) / Fold change /veh OASL (11726364_x_at) / RFU SOX15 (11748057_x_at) / Fold change /veh SOX15 (11748057_x_at) / RFU CD79A (11719716_a_at) / Fold change /veh CD79A (11719716_a_at) / RFU HIST1H1D (11736915_at) / Fold change /veh HIST1H1D (11736915_at) / RFU CASKIN2 (11723855_a_at) / Fold change /veh CASKIN2 (11723855_a_at) / RFU LOC730098 (11760151_x_at) / Fold change /veh LOC730098 (11760151_x_at) / RFU OR4N2 (11742367_at) / Fold change /veh OR4N2 (11742367_at) / RFU PRRT2 (11749266_a_at) / Fold change /veh PRRT2 (11749266_a_at) / RFU SNX32 (11753110_a_at) / Fold change /veh SNX32 (11753110_a_at) / RFU CDHR5 (11726645_a_at) / Fold change /veh CDHR5 (11726645_a_at) / RFU RCAN1 (11760418_a_at) / Fold change /veh RCAN1 (11760418_a_at) / RFU FAM167A (11723789_a_at) / Fold change /veh FAM167A (11723789_a_at) / RFU FAM26E (11764081_at) / Fold change /veh FAM26E (11764081_at) / RFU ISYNA1 (11749810_s_at) / Fold change /veh ISYNA1 (11749810_s_at) / RFU ACY1 (11761880_at) / Fold change /veh ACY1 (11761880_at) / RFU 11764098_at / Fold change /veh 11764098_at / RFU SAMD14 (11745864_x_at) / Fold change /veh SAMD14 (11745864_x_at) / RFU NPB (11741838_a_at) / Fold change /veh NPB (11741838_a_at) / RFU TMPRSS6 (11731388_a_at) / Fold change /veh TMPRSS6 (11731388_a_at) / RFU KRTAP10-2 (11738614_at) / Fold change /veh KRTAP10-2 (11738614_at) / RFU ARHGAP8 /// PRR5-ARHGAP8 (11727945_x_at) / Fold change /veh ARHGAP8 /// PRR5-ARHGAP8 (11727945_x_at) / RFU KRTAP5-7 /// NADSYN1 (11734609_at) / Fold change /veh KRTAP5-7 /// NADSYN1 (11734609_at) / RFU RASL12 (11751679_a_at) / Fold change /veh RASL12 (11751679_a_at) / RFU CDKN2B (11736163_a_at) / Fold change /veh CDKN2B (11736163_a_at) / RFU PRF1 (11729649_at) / Fold change /veh PRF1 (11729649_at) / RFU, ZNF638 /// ZNF638-IT1 / Fold change vs veh, ZNF638 /// ZNF638-IT1 / RFU, PANK3 / Fold change vs veh, PANK3 / RFU, SH3YL1 / Fold change vs veh, SH3YL1 / RFU, ZEB2 / Fold change vs veh, ZEB2 / RFU, NRIP1 / Fold change vs veh, NRIP1 / RFU, PTTG1IP / Fold change vs veh, PTTG1IP / RFU, CAPN2 / Fold change vs veh, CAPN2 / RFU, MED14 / Fold change vs veh, MED14 / RFU, SNORA58 / Fold change vs veh, SNORA58 / RFU, C1orf63 / Fold change vs veh, C1orf63 / RFU, LRRFIP1 / Fold change vs veh, LRRFIP1 / RFU, NDUFAF7 / Fold change vs veh, NDUFAF7 / RFU, SLC12A2 / Fold change vs veh, SLC12A2 / RFU, IBTK / Fold change vs veh, IBTK / RFU, ESF1 / Fold change vs veh, ESF1 / Fold change vs veh, TMEM50B / RFU, TAOK1 / Fold change vs veh, TAOK1 / RFU, ACBD3 / Fold change vs veh, ACBD3 / RFU, TMA16 / Fold change vs veh, TMA16 / RFU, RWDD3 / Fold change vs veh, RWDD3 / RFU, BCAT1 / Fold change vs veh, BCAT1 / RFU, EDEM3 / Fold change vs veh, EDEM3 / RFU, TMEM33 / Fold change vs veh, TMEM33 / RFU, WDR75 / Fold change vs veh, WDR75 / RFU, AHCTF1 / Fold change vs veh, AHCTF1 / RFU, TFRC / Fold change vs veh, TFRC / RFU, ZDHHC17 / Fold change vs veh, ZDHHC17 / RFU, NOM1 / Fold change vs veh, NOM1 / RFU, ARL8B / Fold change vs veh, ARL8B / RFU, ZBTB11 / Fold change vs veh, ZBTB11 / RFU, TAMM41 / Fold change vs veh, TAMM41 / RFU, KIAA1704 /// LOC100996395 / Fold change vs veh, KIAA1704 /// LOC100996395 / RFU, ING1 / Fold change vs veh, ING1 / RFU, TRMT61B / Fold change vs veh, TRMT61B / RFU, FUBP3 / Fold change vs veh, FUBP3 / RFU, TP53 / Fold change vs veh, TP53 / RFU, TNKS2 / Fold change vs veh, TNKS2 / RFU, ZFP14 / Fold change vs veh, ZFP14 / RFU, ACTR2 / Fold change vs veh, ACTR2 / RFU, PPP3R1 / Fold change vs veh, PPP3R1 / RFU, PIK3R1 / Fold change vs veh, PIK3R1 / RFU, HNRNPA1 / Fold change vs veh, HNRNPA1 / RFU, RNF170 / Fold change vs veh, RNF170 / RFU, ZNF28 / Fold change vs veh, ZNF28 / RFU, RNGTT / Fold change vs veh, RNGTT / RFU, OGT / Fold change vs veh, OGT / RFU, BRD1 / Fold change vs veh, BRD1 / RFU, MARS / Fold change vs veh, MARS / RFU, ZNF655 / Fold change vs veh, ZNF655 / RFU, FAHD1 / Fold change vs veh, FAHD1 / RFU, BDP1 / Fold change vs veh, BDP1 / RFU, LRRCC1 / Fold change vs veh, LRRCC1 / RFU, ARID1A / Fold change vs veh, ARID1A / RFU, ZNF146 / Fold change vs veh, ZNF146 / RFU, ZNF330 / Fold change vs veh, ZNF330 / RFU, GPN3 / Fold change vs veh, GPN3 / RFU, C9orf123 / Fold change vs veh, C9orf123 / RFU, N4BP2L2 / Fold change vs veh, N4BP2L2 / RFU, ARFIP1 / Fold change vs veh, ARFIP1 / RFU, FAM179B / Fold change vs veh, FAM179B / RFU, BCL10 / Fold change vs veh, BCL10 / RFU, UHRF1BP1L / Fold change vs veh, UHRF1BP1L / RFU, BET1 / Fold change vs veh, BET1 / RFU, CNOT2 / Fold change vs veh, CNOT2 / RFU, ZNF268 / Fold change vs veh, ZNF268 / Fold change vs veh, ZNF507 / RFU, DGCR2 / Fold change vs veh, DGCR2 / RFU, WDSUB1 / Fold change vs veh, WDSUB1 / Fold change vs veh, HSP90B1 /// MIR3652 / RFU, ADSS / Fold change vs veh, ADSS / RFU, GK / Fold change vs veh, GK / RFU, ZNF148 / Fold change vs veh, ZNF148 / RFU, TAF9 / Fold change vs veh, TAF9 / RFU, SLC1A5 / Fold change vs veh, SLC1A5 / RFU, SLMO2 / Fold change vs veh, SLMO2 / RFU, ABCC4 / Fold change vs veh, ABCC4 / RFU, LOC101060439 /// RAP1B / Fold change vs veh, LOC101060439 /// RAP1B / RFU, RFX7 / Fold change vs veh, RFX7 / RFU, GTPBP10 / Fold change vs veh, GTPBP10 / RFU, CNEP1R1 / Fold change vs veh, CNEP1R1 / RFU, BIVM-ERCC5 /// ERCC5 / Fold change vs veh, BIVM-ERCC5 /// ERCC5 / RFU, ILF3 / Fold change vs veh, ILF3 / RFU 11762660_at / Fold change /veh 11762660_at / RFU VCAN (11757783_s_at) / Fold change /veh VCAN (11757783_s_at) / RFU DDX43 (11728927_at) / Fold change /veh DDX43 (11728927_at) / RFU KRT8 (11758188_x_at) / Fold change /veh KRT8 (11758188_x_at) / RFU NKD1 (11759106_at) / Fold change /veh NKD1 (11759106_at) / RFU SRD5A1 (11742802_a_at) / Fold change /veh SRD5A1 (11742802_a_at) / RFU TPSAB1 /// TPSB2 (11721975_s_at) / Fold change /veh TPSAB1 /// TPSB2 (11721975_s_at) / RFU GSTM3 (11746129_a_at) / Fold change /veh GSTM3 (11746129_a_at) / RFU IL23R (11737362_x_at) / Fold change /veh IL23R (11737362_x_at) / RFU TMEM51 (11727254_a_at) / Fold change /veh TMEM51 (11727254_a_at) / RFU PIWIL2 (11732686_x_at) / Fold change /veh PIWIL2 (11732686_x_at) / RFU ORM1 (11744905_x_at) / Fold change /veh ORM1 (11744905_x_at) / RFU CCDC152 (11743942_at) / Fold change /veh CCDC152 (11743942_at) / RFU ECM1 (11717891_a_at) / Fold change /veh ECM1 (11717891_a_at) / RFU IL23R (11748794_a_at) / Fold change /veh IL23R (11748794_a_at) / RFU TNFAIP8L3 (11732012_x_at) / Fold change /veh TNFAIP8L3 (11732012_x_at) / RFU MBOAT4 (11741988_at) / Fold change /veh MBOAT4 (11741988_at) / RFU 11764193_at / Fold change /veh 11764193_at / RFU TMEM53 (11763286_at) / Fold change /veh TMEM53 (11763286_at) / RFU MAGEB2 (11727129_at) / Fold change /veh MAGEB2 (11727129_at) / RFU TMEM200A (11744735_a_at) / Fold change /veh TMEM200A (11744735_a_at) / RFU CCDC152 (11751479_a_at) / Fold change /veh CCDC152 (11751479_a_at) / RFU FAM211A (11726209_a_at) / Fold change /veh FAM211A (11726209_a_at) / RFU RGS16 (11746705_a_at) / Fold change /veh RGS16 (11746705_a_at) / RFU VCAN (11755009_s_at) / Fold change /veh VCAN (11755009_s_at) / RFU RHOB (11743442_s_at) / Fold change /veh RHOB (11743442_s_at) / RFU RGS16 (11720943_a_at) / Fold change /veh RGS16 (11720943_a_at) / RFU RGS16 (11720944_at) / Fold change /veh RGS16 (11720944_at) / RFU, VPS4B / Fold change vs veh, VPS4B / RFU, CREB1 / Fold change vs veh, CREB1 / RFU, DNAJC13 / Fold change vs veh, DNAJC13 / RFU, GNAQ / Fold change vs veh, GNAQ / RFU, CDK5R1 / Fold change vs veh, CDK5R1 / RFU, ZRANB3 / Fold change vs veh, ZRANB3 / RFU, CUL4A / Fold change vs veh, CUL4A / RFU, CCNY / Fold change vs veh, CCNY / RFU, UFL1 / Fold change vs veh, UFL1 / RFU, COG3 / Fold change vs veh, COG3 / RFU, DIAPH2 / Fold change vs veh, DIAPH2 / RFU, SKA2 / Fold change vs veh, SKA2 / RFU, AFF3 / Fold change vs veh, AFF3 / RFU, LMF1 / Fold change vs veh, LMF1 / RFU, IPO11 / Fold change vs veh, IPO11 / RFU, DFFB / Fold change vs veh, DFFB / RFU, FOXP1 / Fold change vs veh, FOXP1 / RFU, CARD8 / Fold change vs veh, CARD8 / RFU, STRN3 / Fold change vs veh, STRN3 / RFU, ADK / Fold change vs veh, ADK / RFU, RASSF2 / Fold change vs veh, RASSF2 / RFU, WIPF1 / Fold change vs veh, WIPF1 / RFU, LARP1B / Fold change vs veh, LARP1B / RFU, RASA1 / Fold change vs veh, RASA1 / RFU, RB1 / Fold change vs veh, RB1 / RFU, PPFIA1 / Fold change vs veh, PPFIA1 / RFU, MAT2A / Fold change vs veh, MAT2A / RFU, CCT5 / Fold change vs veh, CCT5 / RFU, WDR92 / Fold change vs veh, WDR92 / RFU, CUX1 / Fold change vs veh, CUX1 / RFU, TTC7A / Fold change vs veh, TTC7A / RFU, TMEM135 / Fold change vs veh, TMEM135 / RFU, DEPTOR / Fold change vs veh, DEPTOR / RFU, CPM / Fold change vs veh, CPM / RFU, DNAJB6 / Fold change vs veh, DNAJB6 / RFU, CACNA2D3 / Fold change vs veh, CACNA2D3 / RFU, DTX4 / Fold change vs veh, DTX4 / RFU, TFCP2 / Fold change vs veh, TFCP2 / RFU, GMCL1 /// GMCL1P1 / Fold change vs veh, GMCL1 /// GMCL1P1 / RFU, AEBP2 / Fold change vs veh, AEBP2 / RFU, SNHG1 /// SNORD22 /// SNORD25 /// SNORD26 /// SNORD27 /// SNORD28 /// SNORD29 /// SNORD31 / Fold change vs veh, SNHG1 /// SNORD22 /// SNORD25 /// SNORD26 /// SNORD27 /// SNORD28 /// SNORD29 /// SNORD31 / Fold change (Aza/veh), C12orf56 (ProbeSet 11735607_a_at) / Fold change (ACY-1035/veh), C12orf56 (ProbeSet 11735607_a_at) / Fold change (Aza/veh), FGFR1OP (ProbeSet 11751329_s_at) / Fold change (ACY-1035/veh), FGFR1OP (ProbeSet 11751329_s_at) / Fold change (Aza/veh), VPS36 (ProbeSet 11739960_a_at) / Fold change (ACY-1035/veh), VPS36 (ProbeSet 11739960_a_at) / RFU SYPL1 (11715823_x_at) / Fold change /veh SYPL1 (11715823_x_at) / RFU IGFBP7 (11715501_s_at) / Fold change /veh IGFBP7 (11715501_s_at) / RFU REEP3 (11722064_at) / Fold change /veh REEP3 (11722064_at) / RFU IGLL1 (11728026_x_at) / Fold change /veh IGLL1 (11728026_x_at): dose or concentration left out as unconfirmed
Details: MV-4-11 cells, 48 hours

Nc1ccc(-c2cccs2)cc1NC(=O)c1ccc2c(c1)cc(C1CC1)n2CCN1CCOCC1 [ACY-1035]
Fold change /veh OASL (11726364_x_at): 1.03
